According to patent US10335374B2, “Tablet composition for anti-tuberculosis antibiotics” (priority 2014, dated 2019):
In brackets after ≈: the same amount, converted by molar mass. Like-named read-outs stand apart in the source and are kept apart here.

Key:
[1] = test system: Mycobacterium Tuberculosis Infected Macrophages; conditions: intracellular, published study; cited from earlier work
M. tuberculosis H37Rv [2] = assay: Minimum bactericidal concentration (kill kinetics, 21 days); format: cell-based; conditions: for MBC: Mycobacterium tuberculosis, H37RV
M. tuberculosis H37Rv [3] = assay: MIC, IC50 and IC90 under aerobic conditions (growth after five days); format: cell-based, Mycobacterium tuberculosis
[4] = test system: Vero African green monkey kidney cell line; assay: Cytotoxicity towards eukaryotic cells; format: cell-based; conditions: Chlorocebus sabaeus, 48 h, two days
[5] = test system: Murine J774 macrophages infected with a luminescent strain of H37Rv; format: cell-based, M. tuberculosis; conditions: intracellular
H37Rv strain = assay: MIC of amikacin complexes, H37Rv strain; format: cell-based, M. tuberculosis; conditions: Mycobacterium tuberculosis, second set
M. tuberculosis = assay: IC50, IC90 and MIC of amikacin one and two component complexes; format: cell-based; conditions: Mycobacterium tuberculosis
[6] = clinical trials, compared to placebo groups; cited from earlier work
active TB = assay: MIC of capreomycin one and two component systems against active TB; format: cell-based, Mycobacterium tuberculosis
Method: The first antibiotic complex investigated with one and two component systems consisted of the second-line TB drug capreomycin which was bound to the copper(II) cation and the aggregate forming water soluble unbranched polymer PEG-3350. […] MIC values are defined as the lowest concentration of an antimicrobial (i.e. antifungal, antibiotic or bacteriostatic) drug that will inhibit the visible growth of a microorganism after incubation and is a common unit used to describe the level of efficacy of an antibiotic against a bacterium.

[7] = rats (oral); cited from earlier work
[8] = in vivo; cited from earlier work
[9] = Mycobacterium tuberculosis, H37RV, aerobic conditions, glucose series
[10] = Mycobacterium tuberculosis, H37RV, aerobic conditions, isoniazid-sucrose series, equal molar ratios
[11] = Mycobacterium tuberculosis, H37RV, aerobic conditions, rifampicin complexes, second set

For `COc1c(N2CC[C@@H](C(C)(C)N)C2)c(F)cc2c(=O)c3c(=O)[nH]sc3n(C3CC3)c12` [ACH-702], the “drop of activity, log(kill) units” value [1] is given as ~1.3 log(kill) units.
Work on `NNC(=O)c1ccncc1` [Isoniazid (INH), isoniazid] yielded an MBC (M. tuberculosis H37Rv [2]; isoniazid-sucrose series) of 0.3 µM (≈ 0.0411 µg/mL), an IC50 (M. tuberculosis H37Rv [3]; [9]) of 470 nM and an IC90 (M. tuberculosis H37Rv [3]; [9]) of 620 nM. The MIC (M. tuberculosis H37Rv [3]; Mycobacterium tuberculosis, H37RV, aerobic conditions, glucose series, read-out: MIC) was 0.64 µM (≈ 0.0878 µg/mL), the IC50 (M. tuberculosis H37Rv [3]; [10]) was 630 nM and the IC90 (M. tuberculosis H37Rv [3]; [10]) was 1000 nM. For the same compound, the MIC (M. tuberculosis H37Rv [3]; Mycobacterium tuberculosis, H37RV, aerobic conditions, isoniazid-sucrose series, equal molar ratios, read-out: MIC) was 0.97 µM, the IC50 [4] was over 100000 nM and the “average log(kill) value” ([5]; average of table eight) was 2.5. The “Log Kill” value ([5]; concentration 1.2 μM) was 2.5 and the “Log Kill” value ([5]; concentration 12 μM) was 2.5.
For `Cn1nnc(-c2ccc(-c3ccc(N4C[C@H](CO)OC4=O)cc3F)cn2)n1` [Tedizolid], the “drop of activity, log(kill) units” value [1] is listed as “approximately 1.4 log(kill) units”.
Work on `NCC[C@H](O)C(=O)N[C@@H]1C[C@H](N)[C@@H](O[C@H]2O[C@H](CN)[C@@H](O)[C@H](O)[C@H]2O)[C@H](O)[C@H]1O[C@H]1O[C@H](CO)[C@@H](O)[C@H](N)[C@H]1O` [amikacin] yielded an MIC (H37Rv strain) of 0.256 µM, an IC50 (M. tuberculosis) of 216 nM and an IC90 (M. tuberculosis) of 328 nM. The MIC (M. tuberculosis) was 0.39 µM.
In the case of `COc1nc2ccc(Br)cc2cc1[C@@H](c1ccccc1)[C@@](O)(CCN(C)C)c1cccc2ccccc12` [bedaquiline, Bedaquiline], the “deaths in recipient groups” value [6] is given as 11.4%.
For `[Cl][Cu][Cl]` [copper(II) chloride], the MIC (active TB) is given as 0.39 µM and the LD50 [7] is given as 140 mg/kg.
In the case of `CCO` [ethyl alcohol], the LD50 [8] is listed as 14,000 mg/kg.
For `CO[C@H]1/C=C/O[C@@]2(C)Oc3c(C)c(O)c4c(O)c(c(/C=N/N5CCN(C)CC5)c(O)c4c3C2=O)NC(=O)/C(C)=C\C=C\[C@H](C)[C@H](O)[C@@H](C)[C@@H](O)[C@@H](C)[C@H](OC(C)=O)[C@@H]1C` [rifampicin], the MBC (M. tuberculosis H37Rv [2]; rifampicin complexes) was 0.06 µM (≈ 0.0494 µg/mL), the MBC/MIC (M. tuberculosis H37Rv [2]; rifampicin complexes) was 15 and the MIC (M. tuberculosis H37Rv [3]; Mycobacterium tuberculosis, H37RV, H37Rv strain, rifampicin complexes, first set, read-out: MIC) was 0.006 µM (≈ 0.00494 µg/mL). For the same compound, the IC50 (M. tuberculosis H37Rv [3]; [11]) was 3 nM, the IC90 (M. tuberculosis H37Rv [3]; [11]) was 3 nM and the MIC (M. tuberculosis H37Rv [3]; Mycobacterium tuberculosis, H37RV, aerobic conditions, rifampicin complexes, second set, read-out: MIC) was 0.004 µM (≈ 0.00329 µg/mL).
In the case of `[Cl-].[Na+]` [sodium chloride], the LD50 [8] is listed as 3,000 mg/kg.
In the case of `COc1cc(C=O)ccc1O` [vanillin], the LD50 [8] is given as 1,580 mg/kg.
For capreomycin, the MIC (active TB) was 3.13 µM.
For copper (II) chloride dihydrate, the MIC (M. tuberculosis H37Rv [3]; H37Rv strain, rifampicin complexes, first set) was 105.7 µM.
For copper gluconate, the LD50 [7] is listed as 1710 mg/kg.
For vitamin A, the LD50 [8] is listed as 2,000 mg/kg.
